Consider 15 compounds from patent US9738637B2, “Histone demethylase inhibitors” (Quanticel Pharmaceuticals, Inc., priority 2013, dated 2017).

Where only a bound is given, the exact number is not on record here.

One may read the IC50 as the midpoint of a concentration-inhibition curve.

JMJD2C, sequence (Q9H3R0 2-372): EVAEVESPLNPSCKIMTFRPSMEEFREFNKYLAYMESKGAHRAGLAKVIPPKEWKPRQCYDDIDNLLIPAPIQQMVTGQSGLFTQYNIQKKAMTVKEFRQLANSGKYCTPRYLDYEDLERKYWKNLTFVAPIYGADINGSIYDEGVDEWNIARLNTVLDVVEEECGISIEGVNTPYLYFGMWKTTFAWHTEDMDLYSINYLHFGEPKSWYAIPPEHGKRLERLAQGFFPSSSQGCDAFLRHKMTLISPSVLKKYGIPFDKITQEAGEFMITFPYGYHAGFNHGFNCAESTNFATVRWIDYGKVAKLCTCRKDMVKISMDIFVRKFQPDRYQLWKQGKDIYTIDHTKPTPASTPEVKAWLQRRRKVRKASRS
Jarid1A, sequence (P29375 1-1090): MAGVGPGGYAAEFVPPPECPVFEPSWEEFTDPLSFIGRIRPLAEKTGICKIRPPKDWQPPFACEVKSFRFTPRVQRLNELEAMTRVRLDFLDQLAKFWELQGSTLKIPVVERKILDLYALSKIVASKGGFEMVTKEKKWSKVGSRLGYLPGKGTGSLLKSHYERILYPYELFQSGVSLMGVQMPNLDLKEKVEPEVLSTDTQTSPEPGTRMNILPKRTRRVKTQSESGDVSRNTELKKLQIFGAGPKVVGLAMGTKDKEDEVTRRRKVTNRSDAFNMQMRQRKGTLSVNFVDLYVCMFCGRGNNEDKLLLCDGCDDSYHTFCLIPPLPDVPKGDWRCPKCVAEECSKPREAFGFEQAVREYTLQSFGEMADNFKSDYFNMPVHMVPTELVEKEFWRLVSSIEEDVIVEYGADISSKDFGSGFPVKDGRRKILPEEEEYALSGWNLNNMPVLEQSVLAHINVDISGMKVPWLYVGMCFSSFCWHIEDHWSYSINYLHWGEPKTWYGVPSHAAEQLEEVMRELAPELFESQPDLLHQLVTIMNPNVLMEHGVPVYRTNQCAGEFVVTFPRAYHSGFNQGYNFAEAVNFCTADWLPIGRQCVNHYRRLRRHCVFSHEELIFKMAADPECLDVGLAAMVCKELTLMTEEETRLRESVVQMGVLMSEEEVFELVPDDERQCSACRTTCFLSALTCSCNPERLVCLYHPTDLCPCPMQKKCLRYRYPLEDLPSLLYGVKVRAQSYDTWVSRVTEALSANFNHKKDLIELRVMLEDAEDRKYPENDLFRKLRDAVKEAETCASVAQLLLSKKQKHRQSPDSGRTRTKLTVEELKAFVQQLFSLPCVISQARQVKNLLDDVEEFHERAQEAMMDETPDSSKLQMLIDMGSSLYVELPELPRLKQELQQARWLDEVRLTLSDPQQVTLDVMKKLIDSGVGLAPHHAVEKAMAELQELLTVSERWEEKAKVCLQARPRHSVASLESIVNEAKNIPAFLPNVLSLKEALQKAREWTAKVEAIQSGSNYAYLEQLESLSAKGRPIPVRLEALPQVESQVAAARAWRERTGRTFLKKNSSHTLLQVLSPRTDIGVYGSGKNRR

In one test the target is Jarid1B (Homo sapiens (Human), UniProt Q9UGL1). Briefly: Jarid1B in vitro enzyme inhibition assay (TR-FRET). The test is classed as biochemical. As to conditions: TR-FRET, H3K4me3-biotin peptide; read-out: IC50 Jarid1B. On the procedure: (§1) This assay determines the ability of a test compound to inhibit Jarid1A, Jarid1B, JMJD2C, and JMJD2A demethylase activity.
Jarid1B, sequence (Q9UGL1 2-751): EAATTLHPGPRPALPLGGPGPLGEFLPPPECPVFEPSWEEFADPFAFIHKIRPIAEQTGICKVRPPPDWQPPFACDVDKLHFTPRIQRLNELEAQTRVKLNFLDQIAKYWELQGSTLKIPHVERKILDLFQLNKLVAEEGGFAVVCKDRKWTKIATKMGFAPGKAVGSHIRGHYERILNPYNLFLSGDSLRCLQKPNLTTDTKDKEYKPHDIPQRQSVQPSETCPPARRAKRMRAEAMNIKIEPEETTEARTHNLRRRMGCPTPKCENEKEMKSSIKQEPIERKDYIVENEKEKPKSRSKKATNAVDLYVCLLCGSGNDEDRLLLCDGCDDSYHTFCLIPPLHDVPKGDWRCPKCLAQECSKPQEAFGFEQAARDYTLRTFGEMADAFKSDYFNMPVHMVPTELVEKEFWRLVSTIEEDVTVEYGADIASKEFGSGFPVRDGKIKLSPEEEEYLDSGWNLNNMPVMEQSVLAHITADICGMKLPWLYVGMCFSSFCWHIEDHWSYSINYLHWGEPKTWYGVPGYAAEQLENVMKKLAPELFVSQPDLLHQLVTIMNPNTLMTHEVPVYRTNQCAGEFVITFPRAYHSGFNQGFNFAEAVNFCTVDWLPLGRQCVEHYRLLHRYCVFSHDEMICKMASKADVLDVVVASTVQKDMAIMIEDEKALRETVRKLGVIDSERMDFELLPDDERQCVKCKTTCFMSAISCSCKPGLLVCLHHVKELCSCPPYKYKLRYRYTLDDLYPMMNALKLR
The reaction mixture was incubated at room temperature for 30 minutes, and terminated by the addition of 6 μl of 5 mM EDTA in LANCE detection buffer containing 50 nM Phycolink Streptavidin-allophycocyanin and 2 nM Europium-anti-H3K4me1-2 antibody.
(§2) The ability of the compounds disclosed herein to inhibit demethylase activity was quantified and the respective IC50 value was determined.
A general note: In TR-FRET formats the signal depends on donor and acceptor labels being close together.
Turning to `O=C(O)c1ccnc2cc(C3(O)CCCC3)[nH]c12` [Example 27, 2-(1-hydroxycyclopentyl)-1H-pyrrolo[3,2-b]pyridine-7-carboxylic acid], the IC50 is less than 0.1 µM.

Take `O=C(O)c1ccnc2cc(COc3cccc(Cl)c3)[nH]c12` [Example 80, 2-[(3-chlorophenoxy)methyl]-1H-pyrrolo[3,2-b]pyridine-7-carboxylic acid]: the IC50 is less than 0.1 µM.

As to `O=C(O)c1ccnc2cc(C3CC3)[nH]c12` [Example 12, 2-cyclopropyl-1H-pyrrolo[3,2-b]pyridine-7-carboxylic acid], the 50% inhibitory concentration (IC50) fell in the range of 1 to 10 µM.

Turning to `COC(=O)c1ccnc2cc(-c3ccc(OC)cc3C)[nH]c12` [Example 15, methyl 2-(4-methoxy-2-methylphenyl)-1H-pyrrolo[3,2-b]pyridine-7-carboxylate], the IC50 is more than 10 µM.

For `O=C(O)c1ccnc2cc(C(=O)N3CCCCC3)[nH]c12` [Example 109, 2-(piperidylcarbonyl)pyrrolo[3,2-b]pyridine-7-carboxylic acid], the 50% inhibitory concentration (IC50) lay within 0.1 to 1 µM.

Consider `O=C(O)c1ccnc2cc(Cc3ccccc3Cl)[nH]c12` [Example 78, 2-[(2-chlorophenyl)methyl]-1H-pyrrolo[3,2-b]pyridine-7-carboxylic acid], for which the concentration for half-maximal inhibition (IC50) is less than 0.1 µM.

`CC(c1ccc(F)cc1)c1cc2nccc(C(=O)O)c2[nH]1` (centres unmarked) [Example 110, 2-[1-(4-fluorophenyl)ethyl]-1H-pyrrolo[3,2-b]pyridine-7-carboxylic acid]: the IC50 lay within 0.1 to 1 µM.

With `COc1ccc(Cc2cc3nccc(C(=O)O)c3[nH]2)cc1` [Example 59, 2-[(4-methoxyphenyl)methyl]-1H-pyrrolo[3,2-b]pyridine-7-carboxylic acid], the IC50 lay within 0.1 to 1 µM.

With `O=C(O)c1ccnc2cc(Cc3ccc(Cl)cc3Cl)[nH]c12` [Example 90, 2-[(2,4-dichlorphenyl)methyl]-1H-pyrrolo[3,2-b]pyridine-7-carboxylic acid], the 50% inhibitory concentration (IC50) is less than 0.1 µM.

As for `COCc1cc2nccc(C(=O)O)c2[nH]1` [Example 41, 2-(methoxymethyl)-1H-pyrrolo[3,2-b]pyridine-7-carboxylic acid], the half-inhibitory concentration (IC50) was in the range of 0.1 to 1 µM.

Consider `O=C(O)c1ccnc2cc(C(O)C3CC3)[nH]c12` (racemic) [Example 33, (±)-2-[cyclopropyl(hydroxy)methyl]-1H-pyrrolo[3,2-b]pyridine-7-carboxylic acid], for which the IC50 is less than 0.1 µM.

For `O=C(O)c1ccnc2cc(COc3ccccc3Cl)[nH]c12` [Example 94, 2-[(2-chlorophenoxy)methyl]-1H-pyrrolo[3,2-b]pyridine-7-carboxylic acid], the half-maximal inhibitory concentration (IC50) was in the range of 0.1 to 1 µM.

In the case of `COC(=O)c1ccnc2cc(C3CCCC3)[nH]c12` [Example 28, methyl 2-cyclopentyl-1H-pyrrolo[3,2-b]pyridine-7-carboxylate], the IC50 was more than 10 µM.

On to `O=C(O)c1ccnc2c(Cl)c[nH]c12` [Example 1, 3-chloro-1H-pyrrolo[3,2-b]pyridine-7-carboxylic acid], for which the IC50 was more than 10 µM.

For the compound `CC(C)CC(Oc1ccccc1)c1cc2nccc(C(=O)O)c2[nH]1` (racemic) [Example 86, (±)-2-(3-methyl-phenoxybutyl)-1H-pyrrolo[3,2-b]pyridine-7-carboxylic acid], the 50% inhibitory concentration (IC50) was […].

A further test deals with JMJD2C (Homo sapiens (Human), UniProt Q9H3R0). Nature of the test: JMJD2C in vitro enzyme inhibition assay (TR-FRET). The following applies: TR-FRET, H3K9me3-biotin peptide; read-out: IC50 JNJD2C. The test is classed as biochemical. On the procedure:
as §1
Reaction product was determined quantitatively by TR-FRET after the addition of detection reagent Phycolink Streptavidin-allophycocyanin (Prozyme) and Europium-anti-di-methylated histone H3 lysine 9 (H3K9me2) antibody (PerkinElmer) in the presence of 5 mM EDTA in LANCE detection buffer (PerkinElmer) at a final concentration of 50 nM and 1 nM, respectively.
The assay reaction was initiated by the following: 2 μl of the mixture of 900 nM H3K9me3-biotin labeled peptide and 6 μM alpha-ketoglutaric acid with 2 μl of 11-point serial diluted inhibitor in 3% DMSO were added to each well of the plate, followed by the addition of 2 μl of 0.9 nM JMJD2C to initiate the reaction. The reaction mixture was incubated at room temperature for 30 minutes, and terminated by the addition of 6 μl of 5 mM EDTA in LANCE detection buffer containing 100 nM Phycolink Streptavidin-allophycocyanin and 2 nM Europium-anti-H3K9me2 antibody.
as §2
In the case of `O=C(O)c1ccnc2cc(C3(O)CCCC3)[nH]c12` [Example 27, 2-(1-hydroxycyclopentyl)-1H-pyrrolo[3,2-b]pyridine-7-carboxylic acid], the IC50 was less than 0.1 µM.

Consider `O=C(O)c1ccnc2cc(COc3cccc(Cl)c3)[nH]c12` [Example 80, 2-[(3-chlorophenoxy)methyl]-1H-pyrrolo[3,2-b]pyridine-7-carboxylic acid], for which the IC50 lay within 0.1 to 1 µM.

Regarding `O=C(O)c1ccnc2cc(C3CC3)[nH]c12` [Example 12, 2-cyclopropyl-1H-pyrrolo[3,2-b]pyridine-7-carboxylic acid], the IC50 was less than 0.1 µM.

For `COC(=O)c1ccnc2cc(-c3ccc(OC)cc3C)[nH]c12` [Example 15, methyl 2-(4-methoxy-2-methylphenyl)-1H-pyrrolo[3,2-b]pyridine-7-carboxylate], the IC50 is more than 10 µM.

For the compound `O=C(O)c1ccnc2cc(C(=O)N3CCCCC3)[nH]c12` [Example 109, 2-(piperidylcarbonyl)pyrrolo[3,2-b]pyridine-7-carboxylic acid], the IC50 lay in the range of 0.1 to 1 µM.

Take `O=C(O)c1ccnc2cc(Cc3ccccc3Cl)[nH]c12` [Example 78, 2-[(2-chlorophenyl)methyl]-1H-pyrrolo[3,2-b]pyridine-7-carboxylic acid]: the IC50 is less than 0.1 µM.

For `CC(c1ccc(F)cc1)c1cc2nccc(C(=O)O)c2[nH]1` (centres unmarked) [Example 110, 2-[1-(4-fluorophenyl)ethyl]-1H-pyrrolo[3,2-b]pyridine-7-carboxylic acid], the concentration for half-maximal inhibition (IC50) fell in the range of 0.1 to 1 µM.

Regarding `COc1ccc(Cc2cc3nccc(C(=O)O)c3[nH]2)cc1` [Example 59, 2-[(4-methoxyphenyl)methyl]-1H-pyrrolo[3,2-b]pyridine-7-carboxylic acid], the half-inhibitory concentration (IC50) was less than 0.1 µM.

For `O=C(O)c1ccnc2cc(Cc3ccc(Cl)cc3Cl)[nH]c12` [Example 90, 2-[(2,4-dichlorphenyl)methyl]-1H-pyrrolo[3,2-b]pyridine-7-carboxylic acid], the IC50 is 0.1 to 1 µM.

`COCc1cc2nccc(C(=O)O)c2[nH]1` [Example 41, 2-(methoxymethyl)-1H-pyrrolo[3,2-b]pyridine-7-carboxylic acid]: the IC50 is less than 0.1 µM.

Take `O=C(O)c1ccnc2cc(C(O)C3CC3)[nH]c12` (racemic) [Example 33, (±)-2-[cyclopropyl(hydroxy)methyl]-1H-pyrrolo[3,2-b]pyridine-7-carboxylic acid]: the 50% inhibitory concentration (IC50) is less than 0.1 µM.

In the case of `O=C(O)c1ccnc2cc(COc3ccccc3Cl)[nH]c12` [Example 94, 2-[(2-chlorophenoxy)methyl]-1H-pyrrolo[3,2-b]pyridine-7-carboxylic acid], the half-inhibitory concentration (IC50) lay within 1 to 10 µM.

Consider `COC(=O)c1ccnc2cc(C3CCCC3)[nH]c12` [Example 28, methyl 2-cyclopentyl-1H-pyrrolo[3,2-b]pyridine-7-carboxylate], for which the half-maximal inhibitory concentration (IC50) was more than 10 µM.

As to `O=C(O)c1ccnc2c(Cl)c[nH]c12` [Example 1, 3-chloro-1H-pyrrolo[3,2-b]pyridine-7-carboxylic acid], the concentration for half-maximal inhibition (IC50) was in the range of 1 to 10 µM.

Take `CC(C)CC(Oc1ccccc1)c1cc2nccc(C(=O)O)c2[nH]1` (racemic) [Example 86, (±)-2-(3-methyl-phenoxybutyl)-1H-pyrrolo[3,2-b]pyridine-7-carboxylic acid]: the IC50 was […].

The next test concerns the target Jarid1A (Homo sapiens (Human), UniProt P29375). Nature of the test: Jarid1A in vitro enzyme inhibition assay (TR-FRET). The test is classed as biochemical. As to conditions: H3K4me3-biotin peptide. Here is the method:
as §1
The enzymatic assay of Jarid1A activity is based upon Time Resolved-Fluorescence Resonance Energy Transfer (TR-FRET) detection.
The assay reaction was initiated by the following: 2 μl of the mixture of 900 nM H3K4me3-biotin labeled peptide and 6 μM alpha-ketoglutaric acid with 2 μl of 11-point serial diluted inhibitor in 3% DMSO was added to each well of plate, followed by the addition of 2 μl of 3 nM Jarid1A to initiate the reaction. The reaction mixture was incubated at room temperature for 30 minutes, and terminated by the addition of 6 μl of 5 mM EDTA in LANCE detection buffer containing 50 nM Phycolink Streptavidin-allophycocyanin and 2 nM Europium-anti-H3K4me1-2 antibody.
as §2
`O=C(O)c1ccnc2cc(C3(O)CCCC3)[nH]c12` [Example 27, 2-(1-hydroxycyclopentyl)-1H-pyrrolo[3,2-b]pyridine-7-carboxylic acid] gave a half-inhibitory concentration (IC50) of less than 0.1 µM.

`O=C(O)c1ccnc2cc(COc3cccc(Cl)c3)[nH]c12` [Example 80, 2-[(3-chlorophenoxy)methyl]-1H-pyrrolo[3,2-b]pyridine-7-carboxylic acid] had an IC50 of less than 0.1 µM.

Regarding `O=C(O)c1ccnc2cc(C3CC3)[nH]c12` [Example 12, 2-cyclopropyl-1H-pyrrolo[3,2-b]pyridine-7-carboxylic acid], the IC50 was in the range of 1 to 10 µM.

In turn, `COC(=O)c1ccnc2cc(-c3ccc(OC)cc3C)[nH]c12` [Example 15, methyl 2-(4-methoxy-2-methylphenyl)-1H-pyrrolo[3,2-b]pyridine-7-carboxylate] showed an IC50 of more than 10 µM.

`O=C(O)c1ccnc2cc(C(=O)N3CCCCC3)[nH]c12` [Example 109, 2-(piperidylcarbonyl)pyrrolo[3,2-b]pyridine-7-carboxylic acid]: the half-maximal inhibitory concentration (IC50) was in the range of 0.1 to 1 µM.

As to `O=C(O)c1ccnc2cc(Cc3ccccc3Cl)[nH]c12` [Example 78, 2-[(2-chlorophenyl)methyl]-1H-pyrrolo[3,2-b]pyridine-7-carboxylic acid], the IC50 is less than 0.1 µM.

The compound `CC(c1ccc(F)cc1)c1cc2nccc(C(=O)O)c2[nH]1` (centres unmarked) [Example 110, 2-[1-(4-fluorophenyl)ethyl]-1H-pyrrolo[3,2-b]pyridine-7-carboxylic acid] came in with an IC50 of 0.1 to 1 µM.

`COc1ccc(Cc2cc3nccc(C(=O)O)c3[nH]2)cc1` [Example 59, 2-[(4-methoxyphenyl)methyl]-1H-pyrrolo[3,2-b]pyridine-7-carboxylic acid] gave an IC50 of 0.1 to 1 µM.

As to `O=C(O)c1ccnc2cc(Cc3ccc(Cl)cc3Cl)[nH]c12` [Example 90, 2-[(2,4-dichlorphenyl)methyl]-1H-pyrrolo[3,2-b]pyridine-7-carboxylic acid], the IC50 was less than 0.1 µM.

`COCc1cc2nccc(C(=O)O)c2[nH]1` [Example 41, 2-(methoxymethyl)-1H-pyrrolo[3,2-b]pyridine-7-carboxylic acid]: the IC50 was 0.1 to 1 µM.

For `O=C(O)c1ccnc2cc(C(O)C3CC3)[nH]c12` (racemic) [Example 33, (±)-2-[cyclopropyl(hydroxy)methyl]-1H-pyrrolo[3,2-b]pyridine-7-carboxylic acid], the IC50 was less than 0.1 µM.

Turning to `O=C(O)c1ccnc2cc(COc3ccccc3Cl)[nH]c12` [Example 94, 2-[(2-chlorophenoxy)methyl]-1H-pyrrolo[3,2-b]pyridine-7-carboxylic acid], the IC50 lay in the range of 0.1 to 1 µM.

Compound `COC(=O)c1ccnc2cc(C3CCCC3)[nH]c12` [Example 28, methyl 2-cyclopentyl-1H-pyrrolo[3,2-b]pyridine-7-carboxylate] displayed an IC50 of more than 10 µM.

In the case of `O=C(O)c1ccnc2c(Cl)c[nH]c12` [Example 1, 3-chloro-1H-pyrrolo[3,2-b]pyridine-7-carboxylic acid], the IC50 lay within 1 to 10 µM.
